The values below come from the supplement of paper PMC11061612.

For experiment [1], the system named is NCI-H747 (Colorectal Carcinoma). Description: combination Emax (second highest fraction inhibited in the dose matrix, 72 h); higher = more inhibition; extreme values may be limits of the assay. In a few lines: (§1)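 Cell lines in DMEM/F12 or RPMI with 10% FBS were plated in 1536-well plates, held 24 hours at 37°C, 5% CO2, then given two-drug dose matrices for 72 hours (DMSO typically 0.2%). Viability was read by CellTiter-Glo 2.0 luminescence and scaled as inhibition from 0 (vehicle wells) to 1 (blank wells). Combination Emax is the second-highest inhibition in the matrix; Bliss excess is observed combination effect minus expected EA + EB − EA·EB, EA and EB being single-agent effects.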

The test system of experiment [2] is HCC-15 (Squamous Cell Lung Carcinoma). The experiment is described as above. In a few lines: as §1
In experiment [3] the test system is COLO-829 (Melanoma). Described as above. The gist of the method: as §1
The subject of experiment [4] is TE-4 (Esophageal Squamous Cell Carcinoma). The description is as above. The gist of the method: as §1
The test system of experiment [5] is LB771-HNC (Head and Neck Carcinoma). The experiment is described as above. In a few lines:
as §1

The test system of experiment [6] is OVCAR-8 (Ovarian Carcinoma). Described as above. The gist of the method:
as §1

The subject of experiment [7] is SW626 (Colorectal Carcinoma). Described as above. In a few lines: as §1
The test system of experiment [8] is KARPAS-231 (B-Cell Non-Hodgkin's Lymphoma). Description: Bliss excess, mean over the matrix (fraction); higher = more synergy. The gist of the method: as §1
Experiment [9] deals with CAL-51 (Breast Carcinoma). The description is as above. The gist of the method: as §1
For experiment [10], the system named is MHH-PREB-1 (B-Cell Non-Hodgkin's Lymphoma). The description is as above. The gist of the method:
as §1

For experiment [11], the system named is NCI-H747 (Colorectal Carcinoma). The experiment is described as above. In a few lines:
as §1

Experiment [12] has as its system HCC-15 (Squamous Cell Lung Carcinoma). The description is as above. The gist of the method: as §1
Experiment [13] deals with COLO-829 (Melanoma). The experiment is described as above. In a few lines:
as §1

Experiment [14] relates to TE-4 (Esophageal Squamous Cell Carcinoma). The experiment is described as above. In a few lines: as §1
In experiment [15] the test system is UMC-11 (Other Solid Carcinomas). The experiment is described as above. In a few lines: as §1
The subject of experiment [16] is LB771-HNC (Head and Neck Carcinoma). Described as above. In a few lines:
as §1

The test system of experiment [17] is KYSE-410 (Esophageal Squamous Cell Carcinoma). Described as above. In a few lines: as §1
Experiment [18] relates to CTB-1 (B-Cell Non-Hodgkin's Lymphoma). The description is as above. In a few lines:
as §1

The subject of experiment [19] is OVCAR-8 (Ovarian Carcinoma). The experiment is described as above. In a few lines: as §1
The subject of experiment [20] is SW626 (Colorectal Carcinoma). The description is as above. In a few lines: as §1

As for `CN(CCO)CC[C@H](CSc1ccccc1)Nc1ccc(S(=O)(=O)NC(=O)c2ccc(N3CCC([C@@H](O)c4ccccc4-c4ccc(Cl)cc4)CC3)cc2)cc1S(=O)(=O)C(F)(F)F` [AZD4320] + C[C@@H](Nc1cc(F)cc(F)c1)c1cc(C(=O)N(C)C)cc2c(=O)cc(N3CCOCC3)oc12 [AZD8186] (first compound max 1 µM, 7x7, partner max 3 µM), the “combination Emax” value in experiment [1] was 0.511; in experiment [2], 0.96; in the experiment on COLO-829 (Melanoma) [3], 0.277; in experiment [4], 0.333; in experiment [5], 0.264; in experiment [6], 0.57. Besides, the “combination Emax” value in experiment [7] is 0.651. Further, the Bliss excess in experiment [8] was 0.0269; in experiment [9] it was 0.0283; in experiment [10], 0.0355; in experiment [11] it was -0.0282; in experiment [12] it was 0.0764; in the experiment on COLO-829 (Melanoma) [13], 0.0015. In addition, the Bliss excess is 0.0296 in experiment [14]; -0.0356 in [15]; 0.0095 in experiment [16]; 0.0209 in experiment [17]; 0.0266 in experiment [18]; 0.0245 in experiment [19]. For the same compound, the Bliss excess in experiment [20] is -0.0203.
